Data published in patent publication EP0187355A1, “Process for preparing beta-lactam antibiotics” (E.R. Squibb & Sons, Inc., priority 1981, dated 1982).
Where a name gives a salt, the structure may show the parent alone.

Assays:
Test in all cases: MIC, agar dilution
Assay type in all cases: cell-based
[1] = tested on: Streptococcus agalactiae, 9287; conditions: Streptococcus agalactiae, 9287, 18 h, K-10 agar, 10^4 CFU, 37°C, read-out: M.I.C.
Description: (§1) The following methodology is used to determine the minimum inhibitory concentration (hereinafter referred to as MIC) of the […] of this invention.
(§2) The test organisms are grown in approximately 15-20 ml of Antibiotic Assay broth (Difco) by inoculating (in tubes) the broth with a loopful of the organism from a BHI (Difco) agar slant. The inoculated tubes are incubated at 37°C for 18 to 20 hours. These cultures are assumed to contain 10^9 colony forming units (hereinafter CFU) per milliliter. The cultures are diluted 1:100 to give a final inoculum level of 10^4 CFU; dilutions are made with K-10 broth^*.
(§3) The compounds are dissolved in the appropriate diluent at a concentration of 1000 µg/ml. Twofold dilutions are made in K-10 broth resulting in a range from 1000 µg/ml to 0.5 µg/ml. 1.5 ml of each dilution is placed into individual square petri dishes to which 13.5 ml of K-10 agar^** is added. The final drug concentration in the agar ranges from 100 µg/ml to 0.05 µg/ml. Organism growth control plates containing agar only are prepared and inoculated before and after the test plates. The organisms are applied to the agar surface of each plate with the Denley Multipoint Inoculator (which delivers approximately 0.001 ml of each organism) resulting in a final inoculum level of 10^4 CFU on the agar surface.
(§4) The MIC is the lowest concentration of compound inhibiting growth of the organism.
(§5) The number following each organism refers to the number of the organism in the collection of E. R. Squibb & Sons,.Inc., Princeton, New Jersey. […] The symbol "N.T." means not tested.

[2] = tested on: Enterobacter cloacae, 8236; conditions: Enterobacter cloacae, 8236, 18 h, K-10 agar, 10^4 CFU, 37°C
Description: as §1, §2, §3, §4, §5

Micrococcus luteus, 2495 = conditions: Micrococcus luteus, 2495, 18 h, K-10 agar, 10^4 CFU, 37°C, read-out: M.I.C.
Description: as §1, §2, §3, §4, §5

[3] = tested on: Pseudomonas aeruginosa, 8329; conditions: K-10 agar, 10^4 CFU, 37°C, 18 hours, read-out: M.I.C.
Description: as §1, §2, §3
(§6) The plates are incubated at 37 °C for 18 hours and the MIC's are determined. The MIC is the lowest concentration of compound inhibiting growth of the organism.
as §5, with “The tables that follow are tabulated results obtained when the B-lactams of this invention are tested against various organisms. The number” for “The number”

[4] = tested on: Staphylococcus aureus, 2399; conditions: Staphylococcus aureus, 2399, 18 h, Staphylococcus aureus, 2399; K-10 agar, 10^4 CFU, 37°C, 18 hours; read-out: M.I.C.
Description: as §1, §2, §3, §6
as §5, with “The tables that follow are tabulated results obtained when the B-lactams of this invention are tested against various organisms. The number” for “The number”

Escherichia coli, 10909 = conditions: K-10 agar, 10^4 CFU, 37°C, 18 hours
Description: as §1, §2, §3, §6
as §5, with “The tables that follow are tabulated results obtained when the B-lactams of this invention are tested against various organisms. The number” for “The number”

Salmonella typhosa, 1195 = conditions: Salmonella enterica, TYPHOSA, 18 h, K-10 agar, 10^4 CFU, 37°C
Description: as §1, §2, §3, §6
as §5, with “The tables that follow are tabulated results obtained when the B-lactams of this invention are tested against various organisms. The number” for “The number”

[5] = tested on: Acinetobacter calcoaceticus, 8333; conditions: Acinetobacter calcoaceticus, 8333, 18 h, K-10 agar, 10^4 CFU, 37°C, read-out: M.I.C.
Description: as §1, §2, §3, §6
as §5, with “The tables that follow are tabulated results obtained when the B-lactams of this invention are tested against various organisms. The number” for “The number”

Escherichia coli, 8294 = conditions: Escherichia coli, 8294, 18 h, K-10 agar, 10^4 CFU, 37°C
Description: as §1, §2, §3, §6
as §5, with “The tables that follow are tabulated results obtained when the B-lactams of this invention are tested against various organisms. The number” for “The number”

[6] = tested on: Staphylococcus aureus, 2400; conditions: Staphylococcus aureus, 2400; K-10 agar, 10^4 CFU, 37°C, 18 hours; read-out: M.I.C.
Description: as §1, §2, §3, §6
as §5, with “The tables that follow are tabulated results obtained when the B-lactams of this invention are tested against various organisms. The number” for “The number”

[7] = tested on: Klebsiella aerogenes, 10440; conditions: K-10 agar, 10^4 CFU, 37°C, 18 hours, read-out: M.I.C.
Description: as §1, §2, §3, §6
as §5, with “The tables that follow are tabulated results obtained when the B-lactams of this invention are tested against various organisms. The number” for “The number”

Proteus rettgeri, 8479 = conditions: Providencia rettgeri, K-10 agar, 10^4 CFU, 37°C, 18 hours, read-out: M.I.C.
Description: as §1, §2, §3, §6
as §5, with “The tables that follow are tabulated results obtained when the B-lactams of this invention are tested against various organisms. The number” for “The number”

Escherichia coli, 10896 = conditions: K-10 agar, 10^4 CFU, 37°C, 18 hours
Description: as §1, §2, §3, §6
as §5, with “The tables that follow are tabulated results obtained when the B-lactams of this invention are tested against various organisms. The number” for “The number”

[8] = tested on: Citrobacter freundii, 9518; conditions: K-10 agar, 10^4 CFU, 37°C, 18 hours, read-out: M.I.C.
Description: as §1, §2, §3, §6
as §5, with “The tables that follow are tabulated results obtained when the B-lactams of this invention are tested against various organisms. The number” for “The number”

[9] = tested on: Streptococcus faecalis, 9011; conditions: Enterococcus faecalis; Streptococcus faecalis, 9011; K-10 agar, 10^4 CFU, 37°C, 18 hours; read-out: M.I.C.
Description: as §1, §2, §3, §6
as §5, with “The tables that follow are tabulated results obtained when the B-lactams of this invention are tested against various organisms. The number” for “The number”

Shigella sonnei, 8449 = conditions: Shigella sonnei, 8449, 18 h, K-10 agar, 10^4 CFU, 37°C
Description: as §1, §2, §3, §6
as §5, with “The tables that follow are tabulated results obtained when the B-lactams of this invention are tested against various organisms. The number” for “The number”

[10] = tested on: Klebsiella pneumoniae, 9527; conditions: Klebsiella pneumoniae, 9527, 18 h, K-10 agar, 10^4 CFU, 37°C, read-out: M.I.C.
Description: as §1, §2, §3, §6
as §5, with “The tables that follow are tabulated results obtained when the B-lactams of this invention are tested against various organisms. The number” for “The number”

[11] = tested on: Staphylococcus aureus, 10165; conditions: Staphylococcus aureus, 10165; K-10 agar, 10^4 CFU, 37°C, 18 hours; read-out: M.I.C.
Description: as §1, §2, §3, §6
as §5, with “The tables that follow are tabulated results obtained when the B-lactams of this invention are tested against various organisms. The number” for “The number”

[12] = tested on: Serratia marcescens, 9783; conditions: Serratia marcescens, 9783, 18 h, K-10 agar, 10^4 CFU, 37°C, read-out: M.I.C.
Description: as §1, §2, §3, §6
as §5, with “The tables that follow are tabulated results obtained when the B-lactams of this invention are tested against various organisms. The number” for “The number”

[13] = tested on: Pseudomonas aeruginosa, 9545; conditions: Pseudomonas aeruginosa, 9545, 18 h, K-10 agar, 10^4 CFU, 37°C, read-out: M.I.C.
Description: as §1, §2, §3, §6
as §5, with “The tables that follow are tabulated results obtained when the B-lactams of this invention are tested against various organisms. The number” for “The number”

Escherichia coli, 10857 = conditions: Escherichia coli, 10857, 18 h, K-10 agar, 10^4 CFU, 37°C
Description: as §1, §2, §3, §6
as §5, with “The tables that follow are tabulated results obtained when the B-lactams of this invention are tested against various organisms. The number” for “The number”

[14] = tested on: Staphylococcus aureus, 1276; conditions: Staphylococcus aureus, 1276; K-10 agar, 10^4 CFU, 37°C, 18 hours; read-out: M.I.C.
Description: as §1, §2, §3, §6
as §5, with “The tables that follow are tabulated results obtained when the B-lactams of this invention are tested against various organisms. The number” for “The number”

Proteus vulgaris, 9416 = conditions: K-10 agar, 10^4 CFU, 37°C, 18 hours, read-out: M.I.C.
Description: as §1, §2, §3, §6
as §5, with “The tables that follow are tabulated results obtained when the B-lactams of this invention are tested against various organisms. The number” for “The number”

[15] = tested on: Enterobacter aerogenes, 10078; conditions: Klebsiella aerogenes, 10078, 18 h, Enterobacter aerogenes, 10078; K-10 agar, 10^4 CFU, 37°C, 18 hours; read-out: M.I.C.
Description: as §1, §2, §3, §6
as §5, with “The tables that follow are tabulated results obtained when the B-lactams of this invention are tested against various organisms. The number” for “The number”

Proteus mirabilis, 3855 = conditions: Proteus mirabilis, 3855, 18 h, K-10 agar, 10^4 CFU, 37°C, read-out: M.I.C.
Description: as §1, §2, §3, §6
as §5, with “The tables that follow are tabulated results obtained when the B-lactams of this invention are tested against various organisms. The number” for “The number”

SMILES	MIC [1]	MIC [2]	MIC (Micrococcus luteus, 2495)	MIC [3]	MIC [4]	MIC (Escherichia coli, 10909)	MIC (Salmonella typhosa, 1195)	MIC [5]	MIC (Escherichia coli, 8294)	MIC [6]	MIC [7]	MIC (Proteus rettgeri, 8479)	MIC (Escherichia coli, 10896)	MIC [8]	MIC [9]	MIC (Shigella sonnei, 8449)	MIC [10]	MIC [11]	MIC [12]	MIC [13]	other results
C[C@@H]1[C@H](NC(=O)[C@H](NC(=O)N2CCN(NC(=O)OCc3ccccc3)C(=O)C2=O)c2ccccc2)C(=O)N1S(=O)(=O)O (relative stereo) [Example 20, [3S-[3α(R*),4α]]-[4-[[[2-[(4-methyl-2-oxo-1-sulfo-3-azetidinyl)amino]-2-oxo-1-phenylethyl]amino]carbonyl]-2,3-dioxo-1-piperazinyl]carbamic acid, phenylmethyl ester, potassium salt]	3.1 µg/mL	1.6 µg/mL	3.1 µg/mL	100 µg/mL	6.3 µg/mL	0.4 µg/mL	1.6 µg/mL	50 µg/mL	3.1 µg/mL	25 µg/mL	12.5 µg/mL	1.6 µg/mL	0.8 µg/mL	3.1 µg/mL	> 100 µg/mL	1.6 µg/mL	0.4 µg/mL	> 100 µg/mL	3.1 µg/mL	3.1 µg/mL	MIC (Escherichia coli, 10857): < 0.05 µg/mL; MIC [14]: 6.3 µg/mL; MIC (Proteus vulgaris, 9416): < 0.05 µg/mL; MIC [15]: 6.3 µg/mL; MIC (Proteus mirabilis, 3855): 1.6 µg/mL
C[C@@H]1[C@H](NC(=O)[C@H](NC(=O)N2CCN(N=Cc3ccco3)C2=O)c2ccccc2)C(=O)N1S(=O)(=O)O (relative stereo) [Example 21, [3S-[3α(R*),4α]]-3-[[[[[3-[(2-furanylmethylene)-amino]-2-oxo-1-imidazolidinyl]carbonyl]-amino]phenylacetyl]amino]-4-methyl-2-oxo-1-azetidinesulfonic acid, potassium salt]	0.4 µg/mL	1.6 µg/mL	3.1 µg/mL	12.5 µg/mL	3.1 µg/mL	0.2 µg/mL	0.4 µg/mL	50 µg/mL	1.6 µg/mL	6.3 µg/mL	1.6 µg/mL	1.6 µg/mL	0.4 µg/mL	1.6 µg/mL	> 100 µg/mL	0.8 µg/mL	0.2 µg/mL	100 µg/mL	3.1 µg/mL	12.5 µg/mL	MIC (Escherichia coli, 10857): < 0.05 µg/mL; MIC [14]: 3.1 µg/mL; MIC (Proteus vulgaris, 9416): < 0.05 µg/mL; MIC [15]: 3.1 µg/mL; MIC (Proteus mirabilis, 3855): 0.8 µg/mL
CCN1CCN(C(=O)N[C@@H](C(=O)N[C@@H]2C(=O)N(S(=O)(=O)O)[C@@H]2C)c2ccccc2)C(=O)C1=O (relative stereo) [Example 22, [3S-[3α(R*),4α]]-3-[[[[(4-ethyl-2,3-dioxo-1-piperazinyl)carbonyl]amino]phenylacetyl]-amino]-4-methyl-2-oxo-1-azetidinesulfonic acid, potassium salt]	6.3 µg/mL	0.8 µg/mL	6.3 µg/mL	12.5 µg/mL	6.3 µg/mL	0.4 µg/mL	0.4 µg/mL	12.5 µg/mL	3.1 µg/mL	25 µg/mL	12.5 µg/mL	0.2 µg/mL	1.6 µg/mL	3.1 µg/mL	> 100 µg/mL	1.6 µg/mL	0.1 µg/mL	100 µg/mL	6.3 µg/mL	6.3 µg/mL	MIC (Escherichia coli, 10857): 0.1 µg/mL; MIC [14]: 6.3 µg/mL; MIC (Proteus vulgaris, 9416): < 0.05 µg/mL; MIC [15]: 6.3 µg/mL; MIC (Proteus mirabilis, 3855): 0.4 µg/mL
